In ChEMBL document CHEMBL1151485, “Glyco-S-nitrosothiols, a novel class of no donor compounds” (Bioorg Med Chem Lett, 1996):
In brackets after ≈: the same amount, converted by molar mass.

Legend:
[1] = Compound was evaluated for its stability in phosphate buffer in absence of EDTA at pH 7.4; type: physicochemical; settings: phosphate buffer without EDTA
[2] = Compound was evaluated for its stability in phosphate buffer in presence of EDTA at pH 7.4; type: physicochemical; settings: phosphate buffer with EDTA
[3] = Solubility of compound in 50 mM sodium phosphate buffer at room temperature; type: physicochemical; settings: read-out: S
[4] = Half-life in phosphate buffer at pH 7 and 37 degree C; type: ADME

half-life [1] | half-life [2] | solubility [3] | half-life [4] | SMILES
30.2 h | 28.5 h | > 1000 mg/mL | – | CC(=O)NC(C(=O)NC1OC(CO)C(O)C(O)C1O)C(C)(C)SN=O (stereo not drawn)
27.4 h | 27.5 h | > 1000 mg/mL | – | CC(=O)NC(C(=O)NC1C(O)OC(CO)C(O)C1O)C(C)(C)SN=O (stereo not drawn)
10.3 h | 15.9 h | 2 mg/mL (≈ 9.08 mM) | 5 h | CC(=O)N[C@@H](C(=O)O)C(C)(C)SN=O
28.2 h | 30.2 h | > 1000 mg/mL | – | COC1OC(CNC(=O)C(NC(C)=O)C(C)(C)SN=O)C(O)C(O)C1O (stereo not drawn)
